Measurements from patent publication US9969758B2, “Antimicrobial compounds” (BIOMERIEUX, priority 2014, dated 2018).
Values after ≈ are worked out from the molar mass of the structure shown.

Assays:
Assay in all cases: MIC by agar dilution, single strains
Assay type in all cases: cell-based
[1] = system: Acinetobacter baumannii ATCC 19606; settings: ATCC19606, 22 hours of incubation, read-out: Minimum inhibitory concentration (MIC)
Description: (§1) Determining the minimum inhibitory concentrations (MIC). All the MICs were determined using an agar dilution method. This required use of a medium without a defined antagonist (peptone-free), prepared as described previously with the inclusion of 2% horse blood lysed with saponin, 25.0 μg/mL of NAD and 25.0 μg/mL of hemin [17]. The compounds tested were dissolved in sterile deionised water and incorporated into the agar medium in a concentration range of 0.0031 to 8.0 μg/mL (0.016 to 32 μg/mL for gram-positive bacteria). All the isolates were prepared at a density equivalent to 0.5 McFarland units in sterile deionised water using a densitometer (approximately 1.5×10^8 CFU/mL), and then diluted to 1 for 15. An aliquot of 1 μL of each diluted suspension was then placed onto plates with a multispot inoculator to give the final recommended inoculation of 10 000 CFU/spot. The MICs of fosfomycin were determined by the same method, except that the IsoSensitest medium (Oxoid, Basingstoke, United Kingdom) was used, plus 25.0 μg/mL of glucose-6-phosphate (Sigma, Poole, United Kingdom) and an extended range of fosfomycin concentrations. All the dishes (including the antimicrobial-free controls) were incubated for 22 hours at 37° C. All the tests were performed on at least two independent replicates in order to examine the reproducibility.

[2] = system: Burkholderia cepacia ATCC 25416; settings: ATCC25416, 22 hours of incubation, read-out: Minimum inhibitory concentration (MIC)
Description: as §1

[3] = system: Enterobacter cloacae NCTC 11936; settings: NCTC11936, 22 hours of incubation, read-out: Minimum inhibitory concentration (MIC)
Description: as §1

[4] = system: Enterococcus faecalis NCTC 775; settings: NCTC775, 22 hours of incubation, read-out: Minimum inhibitory concentration (MIC)
Description: as §1

[5] = system: Enterococcus faecium NCTC 7171; settings: NCTC7171, 22 hours of incubation, read-out: Minimum inhibitory concentration (MIC)
Description: as §1

[6] = system: Escherichia coli NCTC 10418; settings: NCTC10418, 22 hours of incubation, read-out: Minimum inhibitory concentration (MIC)
Description: as §1

[7] = system: Escherichia coli NCTC 12241; settings: NCTC12241, 22 hours of incubation, read-out: Minimum inhibitory concentration (MIC)
Description: as §1

[8] = system: Klebsiella pneumoniae NCTC 9528; settings: NCTC9528, 22 hours of incubation, read-out: Minimum inhibitory concentration (MIC)
Description: as §1

[9] = system: Listeria monocytogenes NCTC 11994; settings: NCTC11994, 22 hours of incubation, read-out: Minimum inhibitory concentration (MIC)
Description: as §1

[10] = system: Providencia rettgeri NCTC 7475; settings: NCTC7475, 22 hours of incubation, read-out: Minimum inhibitory concentration (MIC)
Description: as §1

[11] = system: Pseudomonas aeruginosa NCTC 10662; settings: NCTC10662, 22 hours of incubation, read-out: Minimum inhibitory concentration (MIC)
Description: as §1

[12] = system: Salmonella enteritidis NCTC 6676; settings: Salmonella enterica, 22 hours of incubation, read-out: Minimum inhibitory concentration (MIC)
Description: as §1

[13] = system: Salmonella typhimurium NCTC 74; settings: Salmonella enterica, 22 hours of incubation, read-out: Minimum inhibitory concentration (MIC)
Description: as §1

[14] = system: Serratia marcescens NCTC 10211; settings: NCTC10211, 22 hours of incubation, read-out: Minimum inhibitory concentration (MIC)
Description: as §1

[15] = system: Staphylococci epidermidis NCTC 11047; settings: 22 hours of incubation, read-out: Minimum inhibitory concentration (MIC)
Description: as §1

[16] = system: Staphylococcus aureus NCTC 11939 (SARM); settings: NCTC11939, 22 hours of incubation, read-out: Minimum inhibitory concentration (MIC)
Description: as §1

[17] = system: Staphylococcus aureus NCTC 6571; settings: NCTC6571, 22 hours of incubation, read-out: Minimum inhibitory concentration (MIC)
Description: as §1

[18] = system: Yersinia enterocolitica NCTC 11176; settings: NCTC11176, 22 hours of incubation, read-out: Minimum inhibitory concentration (MIC)
Description: as §1

MIC [1]: > 8 µg/mL | MIC [2]: > 8 µg/mL | MIC [3]: > 8 µg/mL | MIC [4]: 0.125 µg/mL (≈ 0.382 µM) | MIC [5]: 4 µg/mL (≈ 12.2 µM) | MIC [6]: 2 µg/mL (≈ 6.11 µM) | MIC [7]: 2 µg/mL (≈ 6.11 µM) | MIC [8]: 0.5 µg/mL (≈ 1.53 µM) | MIC [9]: > 8 µg/mL | MIC [10]: > 8 µg/mL | MIC [11]: > 8 µg/mL | MIC [12]: > 8 µg/mL | MIC [13]: > 8 µg/mL | MIC [14]: 0.5 µg/mL (≈ 1.53 µM) | MIC [15]: 2 µg/mL (≈ 6.11 µM) | MIC [16]: > 8 µg/mL | MIC [17]: 1 µg/mL (≈ 3.05 µM) | MIC [18]: 0.5 µg/mL (≈ 1.53 µM)
SMILES: CSCC[C@H](N)C(=O)N[C@@H](C)C(=O)NC(C)P(=O)(O)O (stereo partly drawn) [compound J, L-methionyl-L-alanyl-D/L fosfalin]
